test system: BT-549; experiment: normalised response (% of control), CellTiter-Glo; higher = more viable cells (100 = DMSO, 0 = benzethonium chloride kill control); conditions: incubation time: 72 h
Experimental: (§1)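 DSRT, 72 h incubation, CellTox Green / CellTiter-Glo readout. Signal is normalised to DMSO and benzethonium chloride controls. Value is the normalised response at dose 3.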

SMILES | normalised response
O=C(Nc1cccnc1)N1CCC(Cc2cccc(Oc3ccc(C(F)(F)F)cn3)c2)CC1 [PF-3845] (100 nM) | 104%
Cc1[nH]c2ccccc2c1CCNCc1ccc(/C=C/C(=O)NO)cc1 [Panobinostat] (10 nM) | 99.7%
COCC1(CO)C(=O)C2CCN1CC2 (centres undefined) [Prima-1 Met] (100 nM) | 106%

test system: MCF-10A; experiment: as above; conditions: incubation time: 72 h
Experimental: as §1

SMILES | normalised response
CCn1c(-c2nonc2N)nc2cnc(Oc3cccc(NC(=O)c4ccc(OCCN5CCOCC5)cc4)c3)cc21 (100 nM) | 75.6%
CNC(=O)c1ccc(N2C(=S)N(c3ccc(C#N)c(C(F)(F)F)c3)C(=O)C2(C)C)cc1F [Enzalutamide] (100 nM) | 108%
C=C1C[C@@H]2[C@H](CC[C@]3(C)C(=O)CC[C@@H]23)[C@@]2(C)C=CC(=O)C=C12 [Exemestane] (100 nM) | 110%
Cc1cc(Nc2cc(CN3CCOCC3)c3nc(C)c(Cc4ccc(Cl)cc4F)n3n2)n[nH]1 [Gandotinib] (100 nM) | 105%
NC(=O)c1ccc(I)c([N+](=O)[O-])c1 [Iniparib] (100 nM) | 76.1%
CCc1c2c(nc3ccc(OC(=O)N4CCC(N5CCCCC5)CC4)cc13)-c1cc3c(c(=O)n1C2)COC(=O)[C@]3(O)CC [Irinotecan] (100 nM) | 95.4%
O=C(Nc1cccnc1)N1CCC(Cc2cccc(Oc3ccc(C(F)(F)F)cn3)c2)CC1 [PF-3845] (100 nM) | 112%
Cc1[nH]c2ccccc2c1CCNCc1ccc(/C=C/C(=O)NO)cc1 [Panobinostat] (10 nM) | 99.6%
COCC1(CO)C(=O)C2CCN1CC2 (centres undefined) [Prima-1 Met] (100 nM) | 107%

test system: HCC1937; experiment: as above; conditions: incubation time: 72 h
Experimental: as §1

SMILES | normalised response
CCn1c(-c2nonc2N)nc2cnc(Oc3cccc(NC(=O)c4ccc(OCCN5CCOCC5)cc4)c3)cc21 (100 nM) | 102%
CNC(=O)c1ccc(N2C(=S)N(c3ccc(C#N)c(C(F)(F)F)c3)C(=O)C2(C)C)cc1F [Enzalutamide] (100 nM) | 91.1%
C=C1C[C@@H]2[C@H](CC[C@]3(C)C(=O)CC[C@@H]23)[C@@]2(C)C=CC(=O)C=C12 [Exemestane] (100 nM) | 94.8%
Cc1cc(Nc2cc(CN3CCOCC3)c3nc(C)c(Cc4ccc(Cl)cc4F)n3n2)n[nH]1 [Gandotinib] (100 nM) | 104%
NC(=O)c1ccc(I)c([N+](=O)[O-])c1 [Iniparib] (100 nM) | 93.1%
CCc1c2c(nc3ccc(OC(=O)N4CCC(N5CCCCC5)CC4)cc13)-c1cc3c(c(=O)n1C2)COC(=O)[C@]3(O)CC [Irinotecan] (100 nM) | 94.8%
O=C(Nc1cccnc1)N1CCC(Cc2cccc(Oc3ccc(C(F)(F)F)cn3)c2)CC1 [PF-3845] (100 nM) | 103%
Cc1[nH]c2ccccc2c1CCNCc1ccc(/C=C/C(=O)NO)cc1 [Panobinostat] (10 nM) | 81.5%
COCC1(CO)C(=O)C2CCN1CC2 (centres undefined) [Prima-1 Met] (100 nM) | 102%

test system: MDA-MB-436; experiment: as above; conditions: incubation time: 72 h
Experimental: as §1

SMILES | normalised response
CCn1c(-c2nonc2N)nc2cnc(Oc3cccc(NC(=O)c4ccc(OCCN5CCOCC5)cc4)c3)cc21 (100 nM) | 103%
CNC(=O)c1ccc(N2C(=S)N(c3ccc(C#N)c(C(F)(F)F)c3)C(=O)C2(C)C)cc1F [Enzalutamide] (100 nM) | 101%
C=C1C[C@@H]2[C@H](CC[C@]3(C)C(=O)CC[C@@H]23)[C@@]2(C)C=CC(=O)C=C12 [Exemestane] (100 nM) | 103%
Cc1cc(Nc2cc(CN3CCOCC3)c3nc(C)c(Cc4ccc(Cl)cc4F)n3n2)n[nH]1 [Gandotinib] (100 nM) | 105%
NC(=O)c1ccc(I)c([N+](=O)[O-])c1 [Iniparib] (100 nM) | 93%
CCc1c2c(nc3ccc(OC(=O)N4CCC(N5CCCCC5)CC4)cc13)-c1cc3c(c(=O)n1C2)COC(=O)[C@]3(O)CC [Irinotecan] (100 nM) | 93.8%
O=C(Nc1cccnc1)N1CCC(Cc2cccc(Oc3ccc(C(F)(F)F)cn3)c2)CC1 [PF-3845] (100 nM) | 103%
Cc1[nH]c2ccccc2c1CCNCc1ccc(/C=C/C(=O)NO)cc1 [Panobinostat] (10 nM) | 83.5%
COCC1(CO)C(=O)C2CCN1CC2 (centres undefined) [Prima-1 Met] (100 nM) | 101%

test system: BT-474; experiment: as above; conditions: incubation time: 72 h
Experimental: as §1

SMILES | normalised response
CCn1c(-c2nonc2N)nc2cnc(Oc3cccc(NC(=O)c4ccc(OCCN5CCOCC5)cc4)c3)cc21 (100 nM) | 81.8%
CNC(=O)c1ccc(N2C(=S)N(c3ccc(C#N)c(C(F)(F)F)c3)C(=O)C2(C)C)cc1F [Enzalutamide] (100 nM) | 99.7%
C=C1C[C@@H]2[C@H](CC[C@]3(C)C(=O)CC[C@@H]23)[C@@]2(C)C=CC(=O)C=C12 [Exemestane] (100 nM) | 98.6%
Cc1cc(Nc2cc(CN3CCOCC3)c3nc(C)c(Cc4ccc(Cl)cc4F)n3n2)n[nH]1 [Gandotinib] (100 nM) | 99.9%
NC(=O)c1ccc(I)c([N+](=O)[O-])c1 [Iniparib] (100 nM) | 92%
CCc1c2c(nc3ccc(OC(=O)N4CCC(N5CCCCC5)CC4)cc13)-c1cc3c(c(=O)n1C2)COC(=O)[C@]3(O)CC [Irinotecan] (100 nM) | 99.2%
O=C(Nc1cccnc1)N1CCC(Cc2cccc(Oc3ccc(C(F)(F)F)cn3)c2)CC1 [PF-3845] (100 nM) | 103%
Cc1[nH]c2ccccc2c1CCNCc1ccc(/C=C/C(=O)NO)cc1 [Panobinostat] (10 nM) | 94.3%
COCC1(CO)C(=O)C2CCN1CC2 (centres undefined) [Prima-1 Met] (100 nM) | 96.8%

test system: DU-4475; experiment: as above; conditions: incubation time: 72 h
Experimental: as §1

SMILES | normalised response
CCn1c(-c2nonc2N)nc2cnc(Oc3cccc(NC(=O)c4ccc(OCCN5CCOCC5)cc4)c3)cc21 (100 nM) | 95.4%
CNC(=O)c1ccc(N2C(=S)N(c3ccc(C#N)c(C(F)(F)F)c3)C(=O)C2(C)C)cc1F [Enzalutamide] (100 nM) | 99.1%
C=C1C[C@@H]2[C@H](CC[C@]3(C)C(=O)CC[C@@H]23)[C@@]2(C)C=CC(=O)C=C12 [Exemestane] (100 nM) | 106%
Cc1cc(Nc2cc(CN3CCOCC3)c3nc(C)c(Cc4ccc(Cl)cc4F)n3n2)n[nH]1 [Gandotinib] (100 nM) | 101%
NC(=O)c1ccc(I)c([N+](=O)[O-])c1 [Iniparib] (100 nM) | 98.8%
CCc1c2c(nc3ccc(OC(=O)N4CCC(N5CCCCC5)CC4)cc13)-c1cc3c(c(=O)n1C2)COC(=O)[C@]3(O)CC [Irinotecan] (100 nM) | 98.8%
O=C(Nc1cccnc1)N1CCC(Cc2cccc(Oc3ccc(C(F)(F)F)cn3)c2)CC1 [PF-3845] (100 nM) | 102%
Cc1[nH]c2ccccc2c1CCNCc1ccc(/C=C/C(=O)NO)cc1 [Panobinostat] (10 nM) | 84%
COCC1(CO)C(=O)C2CCN1CC2 (centres undefined) [Prima-1 Met] (100 nM) | 96.1%

test system: MDA-MB-453; experiment: as above; conditions: incubation time: 72 h
Experimental: as §1

SMILES | normalised response
CCn1c(-c2nonc2N)nc2cnc(Oc3cccc(NC(=O)c4ccc(OCCN5CCOCC5)cc4)c3)cc21 (100 nM) | 97.1%
CNC(=O)c1ccc(N2C(=S)N(c3ccc(C#N)c(C(F)(F)F)c3)C(=O)C2(C)C)cc1F [Enzalutamide] (100 nM) | 105%
C=C1C[C@@H]2[C@H](CC[C@]3(C)C(=O)CC[C@@H]23)[C@@]2(C)C=CC(=O)C=C12 [Exemestane] (100 nM) | 106%
Cc1cc(Nc2cc(CN3CCOCC3)c3nc(C)c(Cc4ccc(Cl)cc4F)n3n2)n[nH]1 [Gandotinib] (100 nM) | 104%
NC(=O)c1ccc(I)c([N+](=O)[O-])c1 [Iniparib] (100 nM) | 78.5%
CCc1c2c(nc3ccc(OC(=O)N4CCC(N5CCCCC5)CC4)cc13)-c1cc3c(c(=O)n1C2)COC(=O)[C@]3(O)CC [Irinotecan] (100 nM) | 102%
O=C(Nc1cccnc1)N1CCC(Cc2cccc(Oc3ccc(C(F)(F)F)cn3)c2)CC1 [PF-3845] (100 nM) | 113%
Cc1[nH]c2ccccc2c1CCNCc1ccc(/C=C/C(=O)NO)cc1 [Panobinostat] (10 nM) | 50.6%
COCC1(CO)C(=O)C2CCN1CC2 (centres undefined) [Prima-1 Met] (100 nM) | 104%

test system: Hs578T; experiment: as above; conditions: incubation time: 72 h
Experimental: as §1

SMILES | normalised response
CCn1c(-c2nonc2N)nc2cnc(Oc3cccc(NC(=O)c4ccc(OCCN5CCOCC5)cc4)c3)cc21 (100 nM) | 80.5%
CNC(=O)c1ccc(N2C(=S)N(c3ccc(C#N)c(C(F)(F)F)c3)C(=O)C2(C)C)cc1F [Enzalutamide] (100 nM) | 102%
C=C1C[C@@H]2[C@H](CC[C@]3(C)C(=O)CC[C@@H]23)[C@@]2(C)C=CC(=O)C=C12 [Exemestane] (100 nM) | 104%
Cc1cc(Nc2cc(CN3CCOCC3)c3nc(C)c(Cc4ccc(Cl)cc4F)n3n2)n[nH]1 [Gandotinib] (100 nM) | 96.3%
NC(=O)c1ccc(I)c([N+](=O)[O-])c1 [Iniparib] (100 nM) | 92.8%
CCc1c2c(nc3ccc(OC(=O)N4CCC(N5CCCCC5)CC4)cc13)-c1cc3c(c(=O)n1C2)COC(=O)[C@]3(O)CC [Irinotecan] (100 nM) | 98%
O=C(Nc1cccnc1)N1CCC(Cc2cccc(Oc3ccc(C(F)(F)F)cn3)c2)CC1 [PF-3845] (100 nM) | 103%
Cc1[nH]c2ccccc2c1CCNCc1ccc(/C=C/C(=O)NO)cc1 [Panobinostat] (10 nM) | 88.1%
COCC1(CO)C(=O)C2CCN1CC2 (centres undefined) [Prima-1 Met] (100 nM) | 101%

test system: SK-BR-3; experiment: as above; conditions: incubation time: 72 h
Experimental: as §1

SMILES | normalised response
CCn1c(-c2nonc2N)nc2cnc(Oc3cccc(NC(=O)c4ccc(OCCN5CCOCC5)cc4)c3)cc21 (100 nM) | 97.9%
CNC(=O)c1ccc(N2C(=S)N(c3ccc(C#N)c(C(F)(F)F)c3)C(=O)C2(C)C)cc1F [Enzalutamide] (100 nM) | 101%
C=C1C[C@@H]2[C@H](CC[C@]3(C)C(=O)CC[C@@H]23)[C@@]2(C)C=CC(=O)C=C12 [Exemestane] (100 nM) | 106%
Cc1cc(Nc2cc(CN3CCOCC3)c3nc(C)c(Cc4ccc(Cl)cc4F)n3n2)n[nH]1 [Gandotinib] (100 nM) | 95.6%
NC(=O)c1ccc(I)c([N+](=O)[O-])c1 [Iniparib] (100 nM) | 80.9%
CCc1c2c(nc3ccc(OC(=O)N4CCC(N5CCCCC5)CC4)cc13)-c1cc3c(c(=O)n1C2)COC(=O)[C@]3(O)CC [Irinotecan] (100 nM) | 100%
O=C(Nc1cccnc1)N1CCC(Cc2cccc(Oc3ccc(C(F)(F)F)cn3)c2)CC1 [PF-3845] (100 nM) | 112%
Cc1[nH]c2ccccc2c1CCNCc1ccc(/C=C/C(=O)NO)cc1 [Panobinostat] (10 nM) | 65.8%
COCC1(CO)C(=O)C2CCN1CC2 (centres undefined) [Prima-1 Met] (100 nM) | 98.7%

test system: CAL-85-1; experiment: as above; conditions: incubation time: 72 h
Experimental: as §1

SMILES | normalised response
CCn1c(-c2nonc2N)nc2cnc(Oc3cccc(NC(=O)c4ccc(OCCN5CCOCC5)cc4)c3)cc21 (100 nM) | 95.5%
CNC(=O)c1ccc(N2C(=S)N(c3ccc(C#N)c(C(F)(F)F)c3)C(=O)C2(C)C)cc1F [Enzalutamide] (100 nM) | 108%
C=C1C[C@@H]2[C@H](CC[C@]3(C)C(=O)CC[C@@H]23)[C@@]2(C)C=CC(=O)C=C12 [Exemestane] (100 nM) | 103%
Cc1cc(Nc2cc(CN3CCOCC3)c3nc(C)c(Cc4ccc(Cl)cc4F)n3n2)n[nH]1 [Gandotinib] (100 nM) | 102%
NC(=O)c1ccc(I)c([N+](=O)[O-])c1 [Iniparib] (100 nM) | 92%
CCc1c2c(nc3ccc(OC(=O)N4CCC(N5CCCCC5)CC4)cc13)-c1cc3c(c(=O)n1C2)COC(=O)[C@]3(O)CC [Irinotecan] (100 nM) | 103%
O=C(Nc1cccnc1)N1CCC(Cc2cccc(Oc3ccc(C(F)(F)F)cn3)c2)CC1 [PF-3845] (100 nM) | 104%
Cc1[nH]c2ccccc2c1CCNCc1ccc(/C=C/C(=O)NO)cc1 [Panobinostat] (10 nM) | 77.1%
COCC1(CO)C(=O)C2CCN1CC2 (centres undefined) [Prima-1 Met] (100 nM) | 99.7%

— the supplement of paper PMC4862054
